In the Deep4Chem optical property database:
“And” between values parts separate entries of the source, which are not always exact repeats. Equal values may be shown once. Blank lines part the entries; values can stand above or below the molecule they belong to.

Experiment: solvent given as SMILES

Structure (SMILES): CC(=O)c1c2c(cc3c(N(C)C)cccc13)CCC2
absorption maximum (in C1CCCCC1): 314 nm | absorption maximum (in C1CCOC1): 330 nm | absorption maximum (in C1COCCO1): 319 nm | absorption maximum (in CC#N): 316 nm | absorption maximum (in CCO): 334 nm | absorption maximum (in CS(C)=O): 334 nm | absorption maximum (in Cc1ccccc1): 322 nm | absorption maximum (in ClC(Cl)Cl): 334 nm | absorption maximum (in ClCCl): 334 nm

Structure (SMILES): CCCCCCCCC1(CCCCCCCC)c2ccccc2-c2ccc(N(c3ccc(-n4c5ccccc5c5ccccc54)cc3)c3ccc4c(c3)C(CCCCCCCC)(CCCCCCCC)c3ccccc3-4)cc21
absorption maximum (in C1CCOC1): 347 nm | absorption maximum (in CC#N): 345 nm | absorption maximum (in CC(C)=O): 345 nm | absorption maximum (in CCCCCC): 347 nm | absorption maximum (in CCCCOCCCC): 347 nm | absorption maximum (in CCN(CC)CC): 347 nm | absorption maximum (in CCOC(C)=O): 345 nm | absorption maximum (in CCOCC): 345 nm | absorption maximum (in CN(C)C=O): 345 nm | absorption maximum (in Cc1ccccc1): 348 nm | absorption maximum (in ClCCl): 348 nm

Structure (SMILES): COc1ccc(C2=C(c3ccc(F)cc3)C(c3ccccc3)=[N+]3C2=Nc2c(-c4ccc(OC)cc4)c(-c4ccc(F)cc4)c(-c4ccccc4)n2[B-]3(F)F)cc1
absorption maximum (in Cc1ccccc1): 653 nm

Structure (SMILES): N#Cc1c(C#N)c2cc(Br)ccc2c2ccc(Br)cc12
absorption maximum (in ClC(Cl)Cl): 350 nm

Structure (SMILES): Cc1cc(C)cc(NC(=O)c2sc(Br)nc2C)c1
absorption maximum (in C1CCOC1): 293.4 nm | absorption maximum (in CC#N): 285 nm | absorption maximum (in CCCCCC): 280.5 nm | absorption maximum (in CCOC(C)=O): 282.5 nm | absorption maximum (in CN(C)C=O): 285.3 nm | absorption maximum (in CO): 271.5 nm | absorption maximum (in CS(C)=O): 283.1 nm | absorption maximum (in ClC(Cl)Cl): 278 nm

Structure (SMILES): CC[N+]1(CC)CN2C(=N1)C(C(=O)O)=Cc1cc(SC)ccc12
absorption maximum (in O): 397 nm

Structure (SMILES): CC[n+]1nc2ccc(N(C)C)cc2c2cc(C)ccc21
absorption maximum (in O): 483 nm

Structure (SMILES): COc1cc2c(cc1-c1ccc(C)cc1)Cc1c3c(c4c(c1-2)-c1cc(OC)c(-c2ccc(C)cc2)cc1C4)C(=O)N(CCC(C)C)C3=O
absorption maximum (in C1CCOC1): 411 nm

Structure (SMILES): CC(C)C[Si](C#Cc1c2c(=O)c3ccccc3c2c(C#C[Si](CC(C)C)(CC(C)C)CC(C)C)c2c(=O)c3ccccc3c12)(CC(C)C)CC(C)C
absorption maximum (in ClC(Cl)Cl): 524 nm

Structure (SMILES): CC1=CC(C)=[N+]2C1=C(c1ccc(N(C)C)cc1)c1c(C)cc(C)n1[B-]2(F)F
absorption maximum (in C1CCOC1): 499 nm | absorption maximum (in CC#N): 496 nm | absorption maximum (in CC(=O)C(C)(C)C): 496 nm | absorption maximum (in CC(C)=O): 496 nm | absorption maximum (in CCCCCC): 500 nm | absorption maximum (in CCOC(C)=O): 498 nm | absorption maximum (in CO): 500 nm and 492 nm

Structure (SMILES): CCC1=C(C)C2=Cc3cc(I)cn3[B-](F)(F)[N+]2=C1C
absorption maximum (in C1CCCCC1): 528 nm | absorption maximum (in CC(C)=O): 509.5 nm | absorption maximum (in CCO): 514 nm | absorption maximum (in CCOC(C)=O): 513 nm | absorption maximum (in CO): 511.5 nm | absorption maximum (in OCC(F)(F)F): 504 nm

Structure (SMILES): O=Cc1cc(C=O)c2ccc3c(N4CCCCC4)cc(N4CCCCC4)c4ccc1c2c43
absorption maximum (in C1COCCO1): 512 nm | absorption maximum (in CC#N): 525 nm | absorption maximum (in CC(C)=O): 521 nm | absorption maximum (in CCCCCC): 498 nm | absorption maximum (in CCO): 522 nm | absorption maximum (in CCOC(C)=O): 514 nm | absorption maximum (in CO): 523 nm | absorption maximum (in CS(C)=O): 535 nm | absorption maximum (in Cc1ccccc1): 516 nm | absorption maximum (in ClCCl): 534 nm

Structure (SMILES): COc1cc(C2=C(c3ccc(C(C)(C)C)cc3)C(c3ccc(C(C)(C)C)cc3)=[N+]3C2=Nc2c(-c4cc(OC)c(OC)c(OC)c4)c(-c4ccc(C(C)(C)C)cc4)c(-c4ccc(C(C)(C)C)cc4)n2[B-]3(F)F)cc(OC)c1OC
absorption maximum (in Cc1ccccc1): 675 nm

Structure (SMILES): N#C/C(=C\c1cn(-c2ccccc2)nc1-c1ccccc1)c1nc2ccccc2s1
absorption maximum (in C1CCOC1): 381 nm | absorption maximum (in C1COCCO1): 381 nm | absorption maximum (in CCO): 380 nm | absorption maximum (in CCOC(C)=O): 380 nm | absorption maximum (in CN(C)C=O): 388 nm | absorption maximum (in CO): 377 nm | absorption maximum (in CS(C)=O): 382 nm | absorption maximum (in Cc1ccccc1): 387 nm | absorption maximum (in ClC(Cl)Cl): 383 nm | absorption maximum (in ClCCl): 380 nm

Structure (SMILES): CN(C)c1ccc(/C=C/C=C/c2ccc(C#N)cc2)cc1
absorption maximum (in CC#N): 402 nm | absorption maximum (in CCCC#N): 410 nm | absorption maximum (in CCCCCC): 400 nm | absorption maximum (in CCOCC): 400 nm

Structure (SMILES): Cc1cc(C)c(-c2nnc(-c3ccc(-n4c5ccccc5c5ccccc54)c(C)c3)o2)c(C)c1
absorption maximum (in Cc1ccccc1): 339 nm

Structure (SMILES): CCN(CC)/C(C)=N\c1ccc2c3c(cccc13)C(=O)c1ccccc1-2
absorption maximum (in C1CCOC1): 472 nm | absorption maximum (in CCCCCC): 444 nm | absorption maximum (in CCO): 473 nm | absorption maximum (in CCOC(C)=O): 463 nm | absorption maximum (in CN(C)C=O): 479 nm | absorption maximum (in CO): 472 nm | absorption maximum (in Cc1ccccc1): 461 nm | absorption maximum (in ClC(Cl)(Cl)Cl): 467 nm | absorption maximum (in ClC(Cl)Cl): 467 nm | absorption maximum (in ClCCl): 467 nm | absorption maximum (in c1ccccc1): 462 nm

Structure (SMILES): CN(C)c1ccc(C2=Nc3scc[n+]3[B-](F)(F)O2)cc1
absorption maximum (in C1CCOC1): 402 nm | absorption maximum (in CC#N): 402 nm | absorption maximum (in Cc1ccccc1): 405 nm | absorption maximum (in ClCCl): 407 nm

Structure (SMILES): Cc1cc(C)n2c1C=C1c3ccccc3C(c3c[nH]c4ccccc34)=[N+]1[B-]2(F)F
absorption maximum (in C1CCOC1): 583 nm | absorption maximum (in CC#N): 575 nm | absorption maximum (in CCCCCC): 580 nm | absorption maximum (in CO): 579 nm | absorption maximum (in Cc1ccccc1): 587 nm | absorption maximum (in ClCCl): 581 nm

Structure (SMILES): CCCCCCCCC1(CCCCCCCC)c2ccccc2-c2ccc(-c3nnc(-c4cccc(-n5c6ccc(C(C)(C)C)cc6c6cc(C(C)(C)C)ccc65)c4)o3)cc21
absorption maximum (in Cc1ccccc1): 345 nm

Structure (SMILES): N#Cc1c(C#N)c2cc(Cl)c(Cl)cc2c2cc(Cl)c(Cl)cc12
absorption maximum (in ClC(Cl)Cl): 343 nm

Structure (SMILES): O=Cc1nc2ccc(C#Cc3ccc(N(c4ccc(C#Cc5ccc6nc(C=O)sc6c5)cc4)c4ccc(C#Cc5ccc6nc(C=O)sc6c5)cc4)cc3)cc2s1
absorption maximum (in Cc1ccccc1): 414 nm

Structure (SMILES): CCC1=C(C)C2=Cc3c4ccccc4c4n3[B-](c3ccccc3)(Oc3ccccc3-4)[N+]2=C1C (configuration not stated)
absorption maximum (in CC#N): 621 nm | absorption maximum (in CCCCCC): 625 nm | absorption maximum (in Cc1ccccc1): 629 nm | absorption maximum (in ClCCl): 627 nm

Structure (SMILES): COc1cc2c(cc1-c1ccc(N(C)C)cc1)Cc1c3c(c4c(c1-2)-c1cc(OC)c(-c2ccc(N(C)C)cc2)cc1C4)C(=O)N(CCC(C)C)C3=O
absorption maximum (in C1CCOC1): 440 nm

Further lines, results first:

absorption maximum (in C1CCOC1): 333 nm
Structure (SMILES): c1ccc(-c2nc(-c3ccc(-c4cncc5ccccc45)cc3)[nH]c2-c2ccccc2)cc1

absorption maximum (in ClCCl): 503 nm
Structure (SMILES): CCCCC1=C(CCCC)c2cccc3c2c(cc2nc4ccccc4nc23)O1

absorption maximum (in ClCCl): 386 nm
Structure (SMILES): COc1ccc(C#Cc2c(C#Cc3ccc(OC)cc3)c(C#Cc3ccc(OC)cc3)c(C#Cc3ccc(OC)cc3)c(C#Cc3ccc(OC)cc3)c2C#Cc2ccc(OC)cc2)cc1

absorption maximum (in ClC(Cl)Cl): 441 nm
Structure (SMILES): CCCCN1c2ccc(/C=C/c3cc(=O)oc4cc(C)ccc34)cc2Sc2cc(/C=C/c3cc(=O)oc4cc(C)ccc34)ccc21

absorption maximum (in ClC(Cl)Cl): 671 nm
Structure (SMILES): CCOC(=O)c1ccc(/C=C/C2=[N+]3C(=C(c4ccccc4)c4ccc(/C=C/c5ccc(C(=O)OCC)o5)n4[B-]3(F)F)C=C2)o1

absorption maximum (in CCO): 556 nm | absorption maximum (in ClCCl): 554 nm
Structure (SMILES): Cc1ccccc1-c1c2ccc(=[N+]3CCOCC3)cc-2oc2cc(N3CCOCC3)ccc12

absorption maximum (in C1CCOC1): 325 nm
Structure (SMILES): C1=Cc2ccccc2C(=Cc2ccc(-c3cc(-c4ccc(C=C5c6ccccc6C=Cc6ccccc65)cc4)cc(-c4ccc(C=C5c6ccccc6C=Cc6ccccc65)cc4)c3)cc2)c2ccccc21

absorption maximum (in ClC(Cl)Cl): 586 nm
Structure (SMILES): CC(C)(C)c1ccc(Oc2cc3c4c(cc(Oc5ccc(C(C)(C)C)cc5)c5c6c(Oc7ccc(C(C)(C)C)cc7)cc7c8c(cc(Oc9ccc(C(C)(C)C)cc9)c(c2c45)c86)C(=O)N(c2ccccc2)C7=O)C(=O)N(c2ccccc2)C3=O)cc1

absorption maximum (in ClCCl): 322 nm
Structure (SMILES): c1ccc(N(c2ccccc2)c2ccc(-n3ccc4cc(-c5cccc6c5-c5ccccc5C6(c5ccccc5)c5ccccc5)ccc43)cc2)cc1

absorption maximum (in CO): 454 nm
Structure (SMILES): O=C1C=C(Nc2ccc(F)c(F)c2)C(=O)c2ccccc21

absorption maximum (in C1CCCCC1): 390 nm | absorption maximum (in CC#N): 398 nm | absorption maximum (in CC(C)O): 397 nm | absorption maximum (in CO): 397 nm | absorption maximum (in CS(C)=O): 408 nm | absorption maximum (in ClC(Cl)Cl): 401 nm | absorption maximum (in c1ccccc1): 397 nm
Structure (SMILES): CN(C)c1ccc2nc(-c3ccc(C(=O)OC[C@H](NC(=O)OC(C)(C)C)C(=O)OCc4ccccc4)cc3)sc2c1

absorption maximum (in ClCCl): 394 nm
Structure (SMILES): Cc1ccc(C2=Nc3cccc4[n+]3[B-](F)(O2)OC(c2ccc(C)cc2)=N4)cc1

absorption maximum (in C1CCOC1): 422 nm
Structure (SMILES): C1=C(c2ccccc2)C=C(c2ccccc2)/C1=C/c1ccc2ccc3cccc4ccc1c2c34

absorption maximum (in ClCCl): 386 nm
Structure (SMILES): CN(C)c1ccc(-c2ccc(/C=C/c3ccncn3)cc2)cc1

absorption maximum (in CC#N): 395 nm | absorption maximum (in CO): 401 nm | absorption maximum (in ClCCl): 399 nm
Structure (SMILES): COc1ccc(O)c(-c2[nH]c(=O)n3c2-c2ccccc2C3=O)c1

absorption maximum (in C1CCOC1): 371 nm
Structure (SMILES): c1cc2ccc1-c1ccc(cc1)-c1sc(c3c1OCCO3)-c1ccc(cc1)-c1ccc(cc1)-c1sc(c3c1OCCO3)-c1ccc(cc1)-c1ccc(cc1)-c1sc-2c2c1OCCO2

absorption maximum (in CCCCCCC): 449 nm
Structure (SMILES): c1ccc2c3c(ccc2c1)-c1c2ccccc2cc2cccc-3c12

absorption maximum (in C1CCOC1): 355 nm
Structure (SMILES): CCC1(CC)c2ccccc2-c2c1c1c(c3c2C(CC)(CC)c2cc(-c4cccs4)ccc2-3)C(CC)(CC)c2cc(N(c3ccccc3)c3ccccc3)ccc2-1

absorption maximum (in ClCCl): 328 nm
Structure (SMILES): COC(=O)C1=C(C(=O)OC)C2(c3ccccc3-c3c(Br)cc(Br)cc32)C2(/C=C/c3ccccc3)c3cc(OC)c(OC)cc3CCN12 (configuration not stated)

absorption maximum (in ClCCl): 366 nm
Structure (SMILES): CCCCc1cc2c3c(c1)-c1ccccc1B(c1c(C)cc(C)cc1C)N3B(c1c(C)cc(C)cc1C)c1ccccc1-2

absorption maximum (in C1CCCCC1): 325 nm
Structure (SMILES): C#Cc1ccc(C#Cc2cnc(C#Cc3ccccc3)nc2)cc1

absorption maximum (in ClCCl): 341 nm
Structure (SMILES): CCOC(=O)c1c(-c2cc3ccc(OCC=C(C)C)cc3oc2=O)nn(-c2ccccc2)c1C(=O)OCC

absorption maximum (in C1CCOC1): 345 nm
Structure (SMILES): CC(C)(C)c1ccc(-c2c(-c3ccc4c5ccccc5n(-c5ccccc5)c4c3)c(C#N)c(-c3ccc4c5ccccc5n(-c5ccccc5)c4c3)c(-c3ccc(C(C)(C)C)cc3)c2-c2ccc(C(C)(C)C)cc2)cc1

absorption maximum (in CCCCCC): 346 nm | absorption maximum (in CO): 345 nm | absorption maximum (in ClCCl): 348 nm
Structure (SMILES): CC(C)(C)c1ccc2ccc3c(C(C)(C)C)ccc4ccc1c2c43
